In US20130059879A1, “Small Molecule Inhibitors of PFKFB3 and Glycolytic Flux and Their Methods of Use as Anti-Cancer Therapeutics” (UNIVERSITY OF LOUISVILLE RESEARCH FOUNDATION, INC., priority 2010, published 2013):
Converted amounts (≈) assume the structure as drawn. Like-named read-outs stand apart in the source and are kept apart here.

Assays:
PFKFB3 = biological target: T1, PFKFB3 (Homo sapiens, UniProt Q16875); test: Inhibition of recombinant PFKFB3 kinase activity (ADP Glow assay); format: biochemical; details: 250 nM analog concentration; read-out: % Inhibition of PFKFB3 Enzymatic Activity
T1 construct: GST
Method: PFKFB3 was prepared by expression in E. coli and purified by GST column and column chromatography. […] The recombinant protein was pure and active as determined by the results of a kinase activity assay commercially available (such as ADP Glow® assay, […]). The same assay was used to determine the inhibition of the protein and the results are shown in Table 5 below (IC50 values or percent inhibition at a fixed concentration). Results confirmed that the compounds of the invention have low nanomolar IC50 values, interacting with PFKFB3 and inhibiting its enzymatic activity.

Jurkat cells = test: Inhibition of 14C-2-deoxyglucose uptake; format: cell-based; details: Homo sapiens, 3 hours
Method: Inhibition of PFKFB3 results in inhibiting glycolysis. Several feedback or feedforward activation and inhibition mechanisms exist so that, by a feedback mechanism, inhibiting the activity of PFKFB3 may inhibit glucose uptake by cells. An assay was developed to determine if there was inhibition of glucose uptake following exposure to the compounds on the invention. Briefly, Jurkat cells were plated at 1×10^5/mL in RPM′ 1640 supplemented with 10% fetal bovine serum and 50 μg/mL gentamicin sulfate. Cells were immediately treated with vehicle or 5 μmol/L of the compound of the invention for 3 hours and subsequently placed in glucose-free RPMI 1640 for 30 min. ^14C-2-deoxyglucose (0.25 μCi/mL; Perkin Elmer) was added for an additional 60 min and cells were then washed three with ice-cold RPMI 1640 containing no glucose. Cell lysates were collected in 500 μL of 0.1% SDS, and scintillation counts (counts/min) were measured on 400 μL of lysate. Counts were normalized to protein concentration.

[1] = Solubility in solvents and excipients, 1 hour at room temperature, HPLC; format: physicochemical; details: thermodynamic from solid
Method: Chemical properties of the compounds of the invention were investigated, including the solubility in several solvents and pharmaceutically accepted excipients. […] Briefly, selected compounds of the invention are dissolved in a small volume of the solvents/excipients of interest at room temperature over 1 hour in typically 1 ml and the concentration is measured by HPLC after filtration.

MDA-MB-231 = test: Cancer cell proliferation, Alamar Blue assay, 72 hours; format: cell-based; details: Homo sapiens
NCI-H82 = test: as above; format: cell-based; details: Homo sapiens, NCI-H82, read-out: IC50 NCl-H82
In short: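 This cell-based assay measured whether compounds kill or inhibit growth of NCI-H82 tumor cells, using Alamar Blue as the readout. Plating was at 2×10^5 cells/ml in 96 well plates. Compounds, prepared at double the final concentration, were added next day in the same volume of medium. Exposure lasted 72 hours, and each experiment was run in triplicate.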

HCT-116 = test: as above; format: cell-based; details: Homo sapiens, HCT-116
Calu-6 = test: as above; format: cell-based; details: Homo sapiens, Calu-6
In short: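 Calu-6 human cancer cells were seeded at 2×10^5 cells/ml in 96 well plates. The next day, an equal volume of media containing the compounds at twice the intended concentration was added. After 72 hours of exposure, inhibition of proliferation was measured with the Alamar Blue assay, run in triplicate, and IC50 values were determined.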

U937 = test: as above; format: cell-based; details: Homo sapiens, U-937
Jurkat = test: as above; format: cell-based; details: Homo sapiens, Jurkat
In short: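 This Alamar Blue assay measured the ability of compounds to kill or inhibit proliferation of Jurkat cancer cells. Cells seeded in 96 well plates at 2×10^5 cells/ml received compounds the following day, added at twice the indicated concentration in an equal volume of media. Exposure lasted 72 hours, and IC50 values were derived from triplicate experiments.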

[2] = Microsomal stability in human liver microsomes; format: in vitro ADME
BX-PC-3 = test: Cell proliferation, MTT assay, 48 hours; format: cell-based; details: Homo sapiens, BXPC-3, BX-PC-3, MTT assay
Method: (§1) The ability of the compounds described herein to kill or inhibit the proliferation of cancer cells was measured using either the MTT assay, or the Alamar Blue assay, or the Cell Titer Glow® assay using 48 or 72 hours exposure. […] The procedures are briefly described below. Cells of the desired tumor cell line were plated at 2×10^5 cells/ml in 96 well plates. Twice the indicated concentrations of the compounds of the invention were added to cells the following day in an equal volume of media. 72 hours later, cells were lysed and subjected to ATP determination using the CellTiter Glo-Luminescent Cell Viability Assay kit (Promega, Madison, Wis.). Experiments were done in triplicate. When using the MTT assay or the Alamar blue assay, the experimental conditions are essentially similar; at the end of the incubation period, 20 microliters of the MTT solution is added per well and the samples are incubated for an additional four hours, rinsed, and the absorbance at 570 nm measured. […] Table 2 lists the IC50 values for the compounds of the invention in several cell lines including Jurkat, Calu-6, NCI-H82, U937, HCT-116, and MDA-MB-231 cancer cell lines.

A549 = test: Cell proliferation, MTT assay, 48 hours; format: cell-based; details: Homo sapiens
Method: as §1

BT474 = test: Cell proliferation, MTT assay, 48 hours; format: cell-based; details: Homo sapiens, BT-474
Method: as §1

MiaPaca = test: Cell proliferation, MTT assay, 48 hours; format: cell-based; details: Homo sapiens, MIA PaCa-2
Method: as §1

SK-BR-3 = test: Cell proliferation, MTT assay, 48 hours; format: cell-based; details: Homo sapiens, SK-BR-3, MTT assay
Method: as §1

SK-N-SH = test: Cell proliferation, MTT assay, 48 hours; format: cell-based; details: Homo sapiens
Method: as §1

H22 = test: Cell proliferation, MTT assay, 48 hours; format: cell-based; details: Mus musculus
Method: as §1

U87MG = test: Cell proliferation, MTT assay, 48 hours; format: cell-based; details: Homo sapiens, U-87 MG
Method: as §1

CT26 = test: Cell proliferation, MTT assay, 48 hours; format: cell-based; details: Mus musculus
Method: as §1

LnCap = test: Cell proliferation, MTT assay, 48 hours; format: cell-based; details: Homo sapiens
Method: as §1

[3] = aqueous with cosolvent or surfactant or cyclodextrin, Cre:EtOH:Saline 5:5:90 mixture, 1 hour at room temperature, read-out: Solubility Cre:EtOH:Saline
[4] = ethanol, organic solvent or mixture, EtOH, 1 hour at room temperature, read-out: Solubility EtOH
[5] = organic solvent or mixture, 1:1 cremophor EL-P:ethanol mixture, 1 hour at room temperature, read-out: Solubility Cre:EtOH
[6] = organic solvent or mixture, Acetone, 1 hour at room temperature, read-out: Solubility Acetone
[7] = organic solvent or mixture, Cremophor, 1 hour at room temperature, read-out: Solubility Cremophor
[8] = organic solvent or mixture, DCM, 1 hour at room temperature, read-out: Solubility DCM
[9] = organic solvent or mixture, Tween 80, 1 hour at room temperature, read-out: Solubility Tween 80
[10] = organic solvent or mixture, Tween80:EtOH 6:4 mixture, 1 hour at room temperature, read-out: Solubility Twee80:EtOH
[11] = 60 min incubation, 1.0 mg/ml microsomal protein, 1 mM NADPH, 37° C.

T1 sequence (Q16875 whole entry, species assumed): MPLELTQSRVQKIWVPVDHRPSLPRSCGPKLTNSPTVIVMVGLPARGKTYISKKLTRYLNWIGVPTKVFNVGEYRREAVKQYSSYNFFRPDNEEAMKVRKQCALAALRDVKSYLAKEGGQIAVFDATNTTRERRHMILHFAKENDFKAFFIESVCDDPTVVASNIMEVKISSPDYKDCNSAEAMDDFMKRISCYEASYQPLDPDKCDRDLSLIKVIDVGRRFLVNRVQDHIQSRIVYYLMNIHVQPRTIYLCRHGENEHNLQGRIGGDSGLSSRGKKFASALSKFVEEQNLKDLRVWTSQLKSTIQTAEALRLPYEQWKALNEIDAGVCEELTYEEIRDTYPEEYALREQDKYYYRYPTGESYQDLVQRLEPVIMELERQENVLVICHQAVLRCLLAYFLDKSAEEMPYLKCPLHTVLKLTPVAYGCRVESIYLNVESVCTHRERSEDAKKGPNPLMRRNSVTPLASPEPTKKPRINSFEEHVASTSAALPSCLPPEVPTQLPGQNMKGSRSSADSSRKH

Row | inhibition at 0.25 µM (PFKFB3) | solubility at 1 h [1, 3] | solubility at 1 h [1, 4] | solubility at 1 h [1, 5] | solubility at 1 h [1, 6] | solubility at 1 h [1, 7] | solubility at 1 h [1, 8] | solubility at 1 h [1, 9] | solubility at 1 h [1, 10] | IC50 (MDA-MB-231) | IC50 (NCI-H82) | IC50 (HCT-116) | IC50 (Calu-6) | IC50 (U937) | IC50 (Jurkat) | HLM, Mean metabolized (%) ([2]; 0 min) | HLM, Mean metabolized (%) [2, 11] | Structure (SMILES) | inhibition at 5 µM (Jurkat cells) | also measured
1 | 26.2% | 0.3 mg/mL (≈ 1.1 mM) | 1.6 mg/mL (≈ 5.88 mM) | 10 mg/mL (≈ 36.7 mM) | 5 mg/mL (≈ 18.4 mM) | 6.9 mg/mL (≈ 25.3 mM) | 3.4 mg/mL (≈ 12.5 mM) | 7.4 mg/mL (≈ 27.2 mM) | 9.7 mg/mL (≈ 35.6 mM) | 0.395 µM | 0.498 µM | 2.4 µM | 0.208 µM | 0.05 µM | 1.5 µM | 0.0% | 26% | O=C(c1ccncc1)c1cc2c(ccc3ccccc32)[nH]1 [ACT-PFK-095, (3H-Benzo[e]indol-2-yl)-pyridin-4-yl-methanone] | 48% | 
2 | 81.5% | 3.7 mg/mL (≈ 12.9 mM) | 7.4 mg/mL (≈ 25.8 mM) | 37.6 mg/mL (≈ 131 mM) | 8.2 mg/mL (≈ 28.6 mM) | 18.6 mg/mL (≈ 65 mM) | 14 mg/mL (≈ 48.9 mM) | 18.1 mg/mL (≈ 63.2 mM) | 35.6 mg/mL (≈ 124 mM) | 0.205 µM | 0.685 µM | 1.44 µM | 0.26 µM | 0.13 µM | 0.625 µM | 0.0% | 82.7% | Nc1ccc(C(=O)c2cc3c(ccc4ccccc43)[nH]2)cc1 [ACT-PFK-112, (4-Amino-phenyl)-(3H-benzo[e]indol-2-yl)-methanone] | 47% | IC50 (BX-PC-3): 0.135 µM; IC50 (A549): 0.822 µM; IC50 (BT474): 1.37 µM; IC50 (MiaPaca): 0.154 µM; IC50 (SK-BR-3): 1.11 µM; IC50 (SK-N-SH): 0.305 µM; IC50 (H22): 0.513 µM; IC50 (U87MG): 3.79 µM; IC50 (CT26): 1.95 µM; IC50 (LnCap): 1.03 µM
